Measured values reported in ChEMBL document CHEMBL1136615, “Carbonic anhydrase inhibitors: inhibition of cytosolic isozymes I and II with sulfamide derivatives” (Bioorg Med Chem Lett, 2003).

Key:
[1] = molecular target: Carbonic anhydrase 2 (Homo sapiens, UniProt P00918)
Description: Inhibitory activity against human cloned isoenzyme carbonic anhydrase II (hCA II), by esterase method.

[2] = molecular target: Carbonic anhydrase 1 (Homo sapiens, UniProt P00915)
Sequence of Carbonic anhydrase 1 (P00915 whole entry): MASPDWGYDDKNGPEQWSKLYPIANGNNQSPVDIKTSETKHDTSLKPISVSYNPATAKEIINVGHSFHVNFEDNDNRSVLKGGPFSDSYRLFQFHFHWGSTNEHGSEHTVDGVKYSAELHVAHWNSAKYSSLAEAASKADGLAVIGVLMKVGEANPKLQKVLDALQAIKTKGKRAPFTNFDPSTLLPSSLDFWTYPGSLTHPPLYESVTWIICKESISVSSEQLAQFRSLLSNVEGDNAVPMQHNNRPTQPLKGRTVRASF
Description: Inhibitory activity against human cloned isoenzyme carbonic anhydrase I (hCA I), by esterase method.

Row | Compound | Ki [1] [nM] | Ki [2] [nM]
1 | COc1ccc(NS(N)(=O)=O)cc1 | 11 | 14
2 | NS(=O)(=O)N1CCCCCC1 | 131 | 163
3 | NS(=O)(=O)NCc1ccccc1 | 123 | 133
4 | NS(=O)(=O)Nc1ccc([N+](=O)[O-])cc1 | 13 | 18
5 | NS(=O)(=O)Nc1cccc(C(=O)c2ccccc2)c1 | 49 | 62
6 | NS(=O)(=O)NC1CCCCC1 | 450 | 164
7 | NS(=O)(=O)Nc1ccc(O)cc1 | 12 | 16
8 | CN(C)c1ccc(NS(N)(=O)=O)cc1 | 21 | 17
9 | NS(=O)(=O)N(Cc1ccccc1)Cc1ccccc1 | 647 | > 100000
10 | NS(=O)(=O)NC1C2CC3CC(C2)CC1C3 (stereo not given) | 890 | 960
11 | NS(=O)(=O)Nc1ccccc1 [PHENYLSULFAMIDE] | – | 13

Next, values leading:

Row | Ki [1] [nM] | Ki [2] [nM] | Compound
12 | 17 | 18 | NS(=O)(=O)Nc1ccc(I)cc1
13 | – | 23 | NS(=O)(=O)Nc1ccc(Br)cc1
14 | 19 | 26 | CCOC(=O)c1ccc(NS(N)(=O)=O)cc1
15 | > 100000 | > 100000 | NS(=O)(=O)N(C1CCCCC1)C1CCCCC1
16 | 15 | 19 | NS(=O)(=O)Nc1ccc(Cl)cc1
17 | > 100000 | > 100000 | CC(C)N(C(C)C)S(N)(=O)=O
18 | 13 | 15 | Cc1ccc(NS(N)(=O)=O)cc1
19 | 148 | 173 | CCCCNS(N)(=O)=O
20 | > 100000 | > 100000 | CC(C)CN(CC(C)C)S(N)(=O)=O
21 | 27 | 149 | NS(=O)(=O)NCCSSCCNS(N)(=O)=O
